Laboratory results: ChEMBL document CHEMBL1157539, “Thousands of chemical starting points for antimalarial lead identification” (Nature, 2010)

test system: Plasmodium falciparum; experiment: GSK_TCMDC: Inhibition of Plasmodium falciparum 3D7 in whole erythrocytes, using parasite LDH activity as an index of growth.; assay type: functional, organism-based; conditions: Plasmodium falciparum, 3D7

Structure (SMILES)	XC50 [nM]
Cc1ccc(Nc2nc(N/N=C/c3cccc([N+](=O)[O-])c3)nc(Nc3ccccc3)n2)c(C)c1	626
CCN(CC)CCN(Cc1ccc(-c2ccc(C(F)(F)F)cc2)cc1)C(=O)Cn1c(CCc2cccc(F)c2F)nc(=O)c2cc(F)c(F)cc21	833
CCN(CC)CCN(Cc1ccc(-c2ccc(C(F)(F)F)cc2)cc1)C(=O)Cn1c(CCc2ccc(F)c(F)c2)cc(=O)c2ccccc21	890
COc1cc(Cc2cnc(N)nc2N)cc(CC(C)O)c1O (stereo not drawn)	843
O=C(Nc1ccc(OC2CCN(Cc3ccccc3)C2)c(Cl)c1)c1ccsc1 (stereo not drawn)	735
COCCCNC(=O)C1CCN(C(c2ccc(Cl)cc2)c2ccc(Cl)cc2)CC1	920
CN(C)CCN(C)Cc1ccc(-c2ccc3c(Nc4ccc(Cl)cc4F)ccnc3c2)o1	360
O=C1CCCN1CCCNCc1ccc(-c2cccc(-c3nc4ccccc4[nH]3)c2)cc1	1020
COc1cc(Cc2cnc(N)nc2N)cc(OC)c1OCCCCC(=O)O	1140
CCOc1cc(C(=O)NC2CCN(Cc3ccccc3)C2)ccc1-c1nc2cc(Cl)ccc2[nH]1 (stereo not drawn)	1010
CC(C)(C)OC(=O)n1cc(C2CCN(CCCC34CCCc5cccc(c53)NC4=O)CC2)c2ccncc21 (stereo not drawn)	876
CCOC(=O)c1ccc(NC(=O)Nc2cccc(-c3ccc(-c4nc5ccccc5[nH]4)cc3)c2)cc1	212
COc1ccc2nccc([C@@H](O)CN3CCC(NC(=O)c4cc5c(F)cc(F)cc5[nH]4)CC3)c2n1	1390
COc1cc(OC)c(NC(=O)Nc2ccnc3ccccc23)cc1Cl	751
N=c1ccn(CC(=NO)c2ccc(Cl)c(Cl)c2)cc1	943
CCOC(=O)c1ccc(NCc2ccccn2)cc1	626
Nc1nc(N)c2c(ccc3c2ccn3Cc2ccc(Br)cc2)n1	3.2
COc1ccc(CNC2Cc3ccccc3C2)cc1-c1ccc(S(=O)(=O)NCCN2CCCC2)s1	195
Cc1cc(N[C@@H](Cc2ccccc2)C(=O)NCCOc2ccccc2)nc(NCc2ccccc2C)n1	711
CC[C@H]1CN2CC[C@@H]1C[C@H]2[C@H](O)c1cc(N2CCC(O)CC2)nc2ccc(OC)cc12	166
Nc1cccc(CNCc2cccc(-c3cccc(-c4nc5cc(F)ccc5[nH]4)c3)c2)c1	692
CN(C)CC1CCCN1Cc1ccccc1-c1cnn(C)c(=O)c1Oc1cccc(C#N)c1 (stereo not drawn)	1340
Cc1ccc(S(=O)(=O)N(CCCNCc2cccc(O)c2)c2ccccc2)cc1	767
COc1ccc(CN2CCCC(C(=O)c3ccc(C(F)(F)F)cc3)C2)c(O)c1 (stereo not drawn)	849
CC(C)C[C@@H](/C=N/N1CCOC1=O)NC(=O)[C@H](CC(C)C)NC(=O)c1ccc(F)cc1	1170

Structure (SMILES)	XC50 [nM]
COc1ccccc1C1CCN(CCN2CCC(NC(=O)c3ccc(-c4ccc(C#N)cc4)cc3)CC2)CC1	792
COc1ccc(CCNCCCCCNCCc2ccc(Cl)cc2)cc1OC	741
Cc1cc(NC(=O)NCCN2CCC(NC(=O)c3ccc(Cl)cc3)CC2)c2ccccc2n1	381
CCN(CC)CC#Cc1ccc2[nH]c(C)c(Cl)c(=O)c2c1	702
O=C(CC1NC(=O)c2ccccc21)Nc1ccc(-c2ccc(-c3nc4cc(C(F)(F)F)ccc4[nH]3)cc2)cc1 (stereo not drawn)	470
COc1ccc(NC(=O)NC2CCN(CCCCCNC(=O)/C=C/c3ccc(Cl)c(Cl)c3)C2)c(OC)c1 (stereo not drawn)	823
O=C(NC1CCN(c2ccc(F)cc2[N+](=O)[O-])CC1)c1cccs1	675
Cc1ccccc1Nc1nc(NCCCO)c2ccccc2n1	407
CC(=O)Oc1c(C(=O)C2CCC(C(C)(C)C)CC2)c(OC(C)=O)c2ccccc2c1OC(C)=O (stereo not drawn)	268
CCOC(=O)c1c(-c2ccccc2)c(C(=O)OCC)n2ccccc12	614
Cc1cnc(CNCc2ccc(S(=O)(=O)Nc3ccc(Oc4cccc(Cl)c4)cc3)cc2)cn1	766
Cc1cc(N[C@@H](CC(C)C)C(=O)Nc2ccccc2)nc(Nc2ccccc2)n1	728
CCN(CC)CCCNc1c2ccccc2nc2ccccc12	753
CO/C(=C\C=C\c1cc2cc(Cl)c(Cl)cc2[nH]1)C(=O)NCCCN1CC(C)N(C)CC1C (stereo not drawn)	1130
CC1=C(C(=O)Nc2cc3cn[nH]c3cc2F)C(c2ccc(Cl)c(NS(C)(=O)=O)c2)CC(=O)N1 (stereo not drawn)	482
COCCNC(=O)c1ccc(OC2CCN(Cc3ccc(F)c(F)c3)CC2)c(Cl)c1	1490
CC(=O)Nc1ccc(OCCN(Cc2ccccc2C(F)(F)F)c2ccc(C#N)c(C(F)(F)F)c2)cc1	443
Cc1noc(C)c1-c1cccc(CNCc2cccc(-c3cccc(-c4nc5cc(F)ccc5[nH]4)c3)c2)c1	176
COc1cc(NC(=O)N2CCc3ccc(OCCN4CCCCC4)cc32)cc(C(F)(F)F)c1	266
Nc1nc(N)c2c(n1)CCc1cc(Br)ccc1-2	1130
O=C(/C=C/c1ccc(Cl)c(Cl)c1)NCCCCCN1CCC(NC(=S)Nc2ccc(F)cc2F)CC1	805
Cc1cccc2nc(-c3ccc(-c4ccc(CN5CCN(c6ccncc6)CC5)cc4)s3)[nH]c12	114
Cc1cccc2c1NC(=O)/C2=N/NC(=S)N(C)C	755
CCC[C@@H]([C@@H](CC1CCCCC1)C(=O)N[C@H](C(=O)Nc1nccs1)C(C)(C)SC)N(O)C=O	152
O=C(/C=C/c1ccc(Cl)c(Cl)c1)NCC(CCCN1CCC(c2c[nH]c3ccccc23)CC1)c1ccccc1 (stereo not drawn)	813

Structure (SMILES)	XC50 [nM]
CC(C)NC(=N)NN=Cc1ccc(Cl)c(Cl)c1	534
Cc1cnc(C[S+]([O-])c2nc3cc(C(F)(F)F)ccc3[nH]2)cc1OCc1ccccc1 (stereo not drawn)	742
O=C(C=Cc1ccc(Cl)c(Cl)c1)NCCCCCN1CCC(CCCNS(=O)(=O)c2ccc(F)cc2)CC1	1020
CN(C)CCOc1ccc2c(c1)CN(C)CC2c1ccccc1 (stereo not drawn)	1110
CC(C)Sc1nc2c(c(=O)n1CCc1ccccc1)C1(CCCCC1)Cc1ccccc1-2	1870
COC(=O)c1ccc2nc(-c3cc(OC)c(O)c(C(=O)NC4CCN(Cc5ccccc5)CC4)c3)[nH]c2c1	1180
CNCCNCc1cccc(-c2cccc(-c3nc4cc(F)ccc4[nH]3)c2)c1	670
Fc1ccc2[nH]c(-c3ccc(-c4ccc(CNCCc5cccnc5)cc4)s3)nc2c1	236
CC(C(=O)NC1CCN(c2ccnc(Nc3ccc(F)cc3)n2)C1)c1ccc(Cl)cc1 (stereo not drawn)	860
O=C(Nc1cccc(-c2cccc(-c3ccc(F)cc3)n2)c1)c1ccc([N+](=O)[O-])o1	361
O=C(Nc1cccc(-c2ccc(-c3nc4cc(F)ccc4[nH]3)cc2)c1)c1cccnc1	612
Cc1cccc2nc(-c3ccc(-c4ccc(CN5CCCCC5)cc4)cc3)[nH]c12	589
COc1ccc(CNC(=O)c2cnc3c(O)cccc3c2Nc2cccc(NC(=O)c3ccc(-c4ccccc4)cc3)c2)cc1	941
Fc1cccc(C=NN=c2cc[nH]c3ccccc23)c1	839
COc1ccc(CNC(=O)c2cnc3cc(-c4c(C)noc4C)ccc3c2Nc2ccccc2C(C)(C)C)cc1	1300
CCCN(CCC)CCCNc1ccc(C(=O)Nc2ccc(C)c(F)c2)cc1[N+](=O)[O-]	539
O=C(NC1CCN(Cc2ccc(F)cc2)CC1)c1ccc(-c2cccc(C(F)(F)F)c2)s1	1360
CN1CCC(NCc2cccc(-c3ccc(S(=O)(=O)NCCc4ccccn4)c(F)c3)c2)CC1	918
O=C(N[C@@H](CC1CCCCC1)C(=O)NCCN1CCCC1)c1ccc(O)c(-c2cccc(C(F)(F)F)c2)c1	760
O=C(/C=C/c1ccc(F)c(Br)c1)NCCCCCN1CCC(c2c[nH]c3ccccc23)CC1	864
CN1CCCN(c2ccnc3cc4c(cc23)N(C(=O)c2ccc(C(F)(F)F)cc2)CC4)CC1	794
CCN(CCCN1CCCCC1)c1cc(C)nc(Nc2ccc(C)cc2C)n1	351
O=C(CCc1ccccc1)NC(c1ccc(Cl)cc1)c1ccc2cccnc2c1O (stereo not drawn)	847
CCN(CC)CCCC(C)N/C(=N\c1ccccc1Br)Nc1ccc(C#N)cc1O (stereo not drawn)	1040
CCOC(=O)c1c(C)n(C2CCCCCC2)c2cc(Br)c(O)cc12	1200

Structure (SMILES)	XC50 [nM]
Nc1ncc(-c2ccc3[nH]ccc3c2)c2ccc(-c3ccncc3)cc12	542
S=C(Nc1cccc(Cl)c1)NC1CCN(c2ccnc3cc(Cl)ccc23)C1 (stereo not drawn)	154
COc1ccc2nccc([C@@H](O)CN3CCC(NCCOc4ccccc4[N+](=O)[O-])CC3)c2c1	384
CCc1cccc(-c2cc(N)n(C)c3nc(N)nc(=O)c2-3)c1	1120
CCN(CC)C(=O)C1CCCN(C(=O)Nc2cc(C(F)(F)F)cc(C(F)(F)F)c2)C1 (stereo not drawn)	996
CCC[C@@H]([C@@H](CC1CCCCC1)C(=O)N[C@H](C(=O)Nc1nccs1)[C@H](C)O)N(O)C=O	148
CC1(C)NC(N)=NC(=N)N1OCCSc1ccccc1	3.2
CC1(C)CCCC(=Cc2ccc(Br)cc2)C1(O)Cn1ccnc1 (stereo not drawn)	791
COc1cc(NC(=O)CCCCCCCCN2CCN(C)CC2)c2ncccc2c1	891
CN1CCN(CC(=O)Nc2ccc(-c3cccc(-c4nc5cc(F)ccc5[nH]4)c3)cc2)CC1	832
O=C(Nc1cccc(F)c1)N1CCC(NS(=O)(=O)c2ccc(Br)cc2)CC1	979
FC(F)(F)c1ccc2[nH]c(-c3ccc(-c4ccc(CNCCN5CCNCC5)cc4)cc3)nc2c1	1120
Cc1cc(N[C@@H](Cc2ccccc2)C(=O)Nc2ccccc2)nc(NCCc2cccs2)n1	796
O=C(NC1CC1)c1cnc(N2CCC(c3ccccc3)CC2)c(Cl)c1	851
COc1ccc(Nc2cc(C)c3cc(NC(=O)c4ccncc4)ccc3n2)cc1	908
O=S(=O)(NCCN1CCCC1)c1ccc(-c2ccc(CNCc3ccccc3)cc2)s1	849
FC(F)(F)c1ccc2[nH]c(-c3ccc(-c4cccc(CNCc5cnn(-c6ccccc6)n5)c4)cc3)nc2c1	652
CC(C)(C)C(=O)Nc1c(-c2cc(=O)oc3cc4c(cc23)CCC4)oc2ccccc12	1260
N#Cc1ccc2c(c1)CN(C1CCC(NC(=O)c3cc(-c4ccc(Cl)cc4)cs3)CC1)CCC2 (stereo not drawn)	956
COc1ccc(-c2cc(NCc3ccc(-n4ccnc4)cc3)nc(Nc3ccccc3)n2)cc1	966
CCCCCC(C)N/C(=N/c1ccccc1Br)Nc1ccc([N+](=O)[O-])cc1O (stereo not drawn)	615
Cc1ccc(S(=O)(=O)NC2CCN(CCNC(=O)Nc3cc(C)nc4ccccc34)C2)cc1 (stereo not drawn)	1040
O=[N+]([O-])c1ccc(Oc2ccccc2CNCC2CCN(CC3CCCCC3)CC2)cc1	903
